Test results published in ChEMBL document CHEMBL3774345, “Synthesis of new diarylamides with pyrimidinyl pyridine scaffold and evaluation of their anti-proliferative effect on cancer cell lines” (Bioorg Med Chem Lett, 2016).

What was measured:
Assay type in all cases: functional
[1] = Cytotoxicity against human OVCAR4 cells assessed as cell growth at 10 uM after 24 hrs by SRB assay; conditions: OVCAR-4, 24 h, read-out: Activity
[2] = Cytotoxicity against human SNB19 cells assessed as cell growth at 10 uM after 24 hrs by SRB assay; conditions: SNB-19, 24 h, read-out: Activity
[3] = Cytotoxicity against human HL-60(TB) cells assessed as cell growth at 10 uM after 24 hrs by SRB assay; conditions: HL-60, 24 h, read-out: Activity
SK-MEL-5 = experiment: Cytotoxicity against human SK-MEL-5 cells assessed as cell growth at 10 uM after 24 hrs by SRB assay; conditions: SK-MEL-5, 24 h, read-out: Activity
[4] = Cytotoxicity against human NCI-ADR-RES cells assessed as cell growth at 10 uM after 24 hrs by SRB assay; conditions: read-out: Activity
[5] = Cytotoxicity against human RPMI8226 cells assessed as cell growth at 10 uM after 24 hrs by SRB assay; conditions: RPMI-8226, 24 h, read-out: Activity
[6] = Cytotoxicity against human HCC2998 cells assessed as cell growth at 10 uM after 24 hrs by SRB assay; conditions: HCC 2998, 24 h, read-out: Activity
[7] = Cytotoxicity against human SF539 cells assessed as cell growth at 10 uM after 24 hrs by SRB assay; conditions: SF-539, 24 h, read-out: Activity
M14 = experiment: Cytotoxicity against human M14 cells assessed as cell growth at 10 uM after 24 hrs by SRB assay; conditions: M14, 24 h, read-out: Activity
MDA-MB-231 = experiment: Cytotoxicity against human MDA-MB-231 cells assessed as cell growth at 10 uM after 24 hrs by SRB assay; conditions: MDA-MB-231, 24 h, read-out: Activity
[8] = Cytotoxicity against human NCI60 cells assessed as growth inhibition at 10 uM after 24 hrs by SRB assay; conditions: NCI60, 24 h
[9] = Cytotoxicity against human Caki1 cells assessed as cell growth at 10 uM after 24 hrs by SRB assay; conditions: CAKI-1, 24 h, read-out: Activity
[10] = Cytotoxicity against human OVCAR8 cells assessed as cell growth at 10 uM after 24 hrs by SRB assay; conditions: OVCAR-8, 24 h, read-out: Activity
NCI-H322M = experiment: Cytotoxicity against human NCI-H322M cells assessed as cell growth at 10 uM after 24 hrs by SRB assay; conditions: read-out: Activity
A498 = experiment: Cytotoxicity against human A498 cells assessed as cell growth at 10 uM after 24 hrs by SRB assay; conditions: A498, 24 h, read-out: Activity
[11] = Cytotoxicity against human IGROV1 cells assessed as cell growth at 10 uM after 24 hrs by SRB assay; conditions: IGROV-1, 24 h, read-out: Activity
MCF7 = experiment: Cytotoxicity against human MCF7 cells assessed as cell growth at 10 uM after 24 hrs by SRB assay; conditions: MCF7, 24 h, read-out: Activity
[12] = Cytotoxicity against human DU145 cells assessed as cell growth at 10 uM after 24 hrs by SRB assay; conditions: DU-145, 24 h, read-out: Activity
CCRF-CEM = experiment: Cytotoxicity against human CCRF-CEM cells assessed as cell growth at 10 uM after 24 hrs by SRB assay; conditions: read-out: Activity
[13] = Cytotoxicity against human LOXIMVI cells assessed as cell growth at 10 uM after 24 hrs by SRB assay; conditions: LOX IMVI, read-out: Activity
[14] = Cytotoxicity against human HOP92 cells assessed as cell growth at 10 uM after 24 hrs by SRB assay; conditions: HOP-92, 24 h, read-out: Activity
SR = experiment: Cytotoxicity against human SR cells assessed as cell growth at 10 uM after 24 hrs by SRB assay; conditions: read-out: Activity
786-0 = experiment: Cytotoxicity against human 786-0 cells assessed as cell growth at 10 uM after 24 hrs by SRB assay; conditions: 786-0, 24 h, read-out: Activity
[15] = Cytotoxicity against human UACC62 cells assessed as cell growth at 10 uM after 24 hrs by SRB assay; conditions: UACC-62, 24 h, read-out: Activity
SN12C = experiment: Cytotoxicity against human SN12C cells assessed as cell growth at 10 uM after 24 hrs by SRB assay; conditions: read-out: Activity
[16] = Cytotoxicity against human SF268 cells assessed as cell growth at 10 uM after 24 hrs by SRB assay; conditions: SF-268, 24 h, read-out: Activity
[17] = Cytotoxicity against human COLO205 cells assessed as cell growth at 10 uM after 24 hrs by SRB assay; conditions: COLO 205, 24 h, read-out: Activity
[18] = Cytotoxicity against human HOP62 cells assessed as cell growth at 10 uM after 24 hrs by SRB assay; conditions: HOP-62, 24 h, read-out: Activity
[19] = Cytotoxicity against human SF295 cells assessed as cell growth at 10 uM after 24 hrs by SRB assay; conditions: SF-295, 24 h, read-out: Activity
[20] = Cytotoxicity against human SKOV3 cells assessed as cell growth at 10 uM after 24 hrs by SRB assay; conditions: SK-OV-3, 24 h, read-out: Activity
HT-29 = experiment: Cytotoxicity against human HT-29 cells assessed as cell growth at 10 uM after 24 hrs by SRB assay; conditions: HT-29, 24 h, read-out: Activity
[21] = Cytotoxicity against human UACC257 cells assessed as cell growth at 10 uM after 24 hrs by SRB assay; conditions: UACC-257, 24 h, read-out: Activity
SK-MEL-28 = experiment: Cytotoxicity against human SK-MEL-28 cells assessed as cell growth at 10 uM after 24 hrs by SRB assay; conditions: SK-MEL-28, 24 h, read-out: Activity
KM12 = experiment: Cytotoxicity against human KM12 cells assessed as cell growth at 10 uM after 24 hrs by SRB assay; conditions: KM12, 24 h, read-out: Activity
MDA-MB-468 = experiment: Cytotoxicity against human MDA-MB-468 cells assessed as cell growth at 10 uM after 24 hrs by SRB assay; conditions: MDA-MB-468, 24 h, read-out: Activity
U-251 = experiment: Cytotoxicity against human U251 cells assessed as cell growth at 10 uM after 24 hrs by SRB assay; conditions: U-251, 24 h, read-out: Activity
[22] = Cytotoxicity against human OVCAR3 cells assessed as cell growth at 10 uM after 24 hrs by SRB assay; conditions: OVCAR-3, 24 h, read-out: Activity
NCI-H522 = experiment: Cytotoxicity against human NCI-H522 cells assessed as cell growth at 10 uM after 24 hrs by SRB assay; conditions: NCI-H522, 24 h, read-out: Activity
T47D = experiment: Cytotoxicity against human T47D cells assessed as cell growth at 10 uM after 24 hrs by SRB assay; conditions: read-out: Activity

SMILES: O=C(Nc1cc(-c2cccnc2)nc(NCCCN2CCOCC2)n1)c1ccc(F)cc1Cl
- growth at 10 µM [1]: 115%
- growth at 10 µM [2]: 94.2%
- growth at 10 µM [3]: 83.6%
- growth at 10 µM (SK-MEL-5): 88%
- growth at 10 µM [4]: 94.5%
- growth at 10 µM [5]: 90%
- growth at 10 µM [6]: 98.4%
- growth at 10 µM [7]: 101%
- growth at 10 µM (M14): 102%
- growth at 10 µM (MDA-MB-231): 93.2%
- inhibition at 10 µM [8]: 3.57%
- growth at 10 µM [9]: 90.3%
- growth at 10 µM [10]: 94.2%
- growth at 10 µM (NCI-H322M): 88.2%
- growth at 10 µM (A498): 81.2%
- growth at 10 µM [11]: 95.9%
- growth at 10 µM (MCF7): 87.4%
- growth at 10 µM [12]: 112%
- growth at 10 µM (CCRF-CEM): 88.3%
- growth at 10 µM [13]: 96.5%
- growth at 10 µM [14]: 91.2%
- growth at 10 µM (SR): 92.8%
- growth at 10 µM (786-0): 89.2%
- growth at 10 µM [15]: 105%
- growth at 10 µM (SN12C): 92.1%
- growth at 10 µM [16]: 94.9%
- growth at 10 µM [17]: 99.5%
- growth at 10 µM [18]: 95.5%
- growth at 10 µM [19]: 100%
- growth at 10 µM [20]: 101%
- growth at 10 µM (HT-29): 87.3%
- growth at 10 µM [21]: 95.4%
- growth at 10 µM (SK-MEL-28): 108%
- growth at 10 µM (KM12): 104%
- growth at 10 µM (MDA-MB-468): 93.5%
- growth at 10 µM (U-251): 92%
- growth at 10 µM [22]: 106%
- growth at 10 µM (NCI-H522): 87.1%
- growth at 10 µM (T47D): 99.5%

SMILES: O=C(Nc1cc(-c2cccnc2)nc(NCCCN2CCOCC2)n1)c1cc(Br)cc(C(F)(F)F)c1
- growth at 10 µM [1]: 62.2%
- growth at 10 µM [2]: 69.6%
- growth at 10 µM [3]: 48.5%
- growth at 10 µM (SK-MEL-5): 3.78%
- growth at 10 µM [4]: 56.6%
- growth at 10 µM [5]: 30.2%
- growth at 10 µM [6]: 37.8%
- growth at 10 µM [7]: 66.5%
- growth at 10 µM (M14): -72.1%
- growth at 10 µM (MDA-MB-231): 32.7%
- inhibition at 10 µM [8]: 57.2%
- growth at 10 µM [9]: 61.8%
- growth at 10 µM [10]: 58.5%
- growth at 10 µM (NCI-H322M): 58.2%
- growth at 10 µM (A498): 53.7%
- growth at 10 µM [11]: 63.1%
- growth at 10 µM (MCF7): 38.6%
- growth at 10 µM [12]: 82.5%
- growth at 10 µM (CCRF-CEM): 42.8%
- growth at 10 µM [13]: -16.8%
- growth at 10 µM [14]: 34.6%
- growth at 10 µM (SR): 4.25%
- growth at 10 µM (786-0): 51.8%
- growth at 10 µM [15]: -6.13%
- growth at 10 µM (SN12C): 67.2%
- growth at 10 µM [16]: 60.9%
- growth at 10 µM [17]: 1.11%
- growth at 10 µM [18]: 69.4%
- growth at 10 µM [19]: -22.8%
- growth at 10 µM [20]: 92.3%
- growth at 10 µM (HT-29): 8.99%
- growth at 10 µM [21]: -27.1%
- growth at 10 µM (SK-MEL-28): -49.8%
- growth at 10 µM (KM12): 80%
- growth at 10 µM (MDA-MB-468): 52.8%
- growth at 10 µM (U-251): 33.1%
- growth at 10 µM [22]: 80%
- growth at 10 µM (NCI-H522): 60.2%
- growth at 10 µM (T47D): 46.4%

SMILES: Cc1cc(Cl)ccc1C(=O)Nc1cc(-c2cccnc2)nc(NCCCN2CCOCC2)n1
- growth at 10 µM [1]: 97.7%
- growth at 10 µM [2]: 89.8%
- growth at 10 µM (SK-MEL-5): 92.7%
- growth at 10 µM [4]: 106%
- growth at 10 µM [5]: 104%
- growth at 10 µM [6]: 100%
- growth at 10 µM [7]: 91.4%
- growth at 10 µM (M14): 101%
- growth at 10 µM (MDA-MB-231): 97.3%
- inhibition at 10 µM [8]: 1.46%
- growth at 10 µM [9]: 101%
- growth at 10 µM [10]: 96.9%
- growth at 10 µM (NCI-H322M): 102%
- growth at 10 µM (A498): 95.2%
- growth at 10 µM [11]: 109%
- growth at 10 µM (MCF7): 90.1%
- growth at 10 µM [12]: 97.6%
- growth at 10 µM (CCRF-CEM): 101%
- growth at 10 µM [13]: 109%
- growth at 10 µM [14]: 95.9%
- growth at 10 µM (SR): 98.7%
- growth at 10 µM (786-0): 77.2%
- growth at 10 µM [15]: 102%
- growth at 10 µM (SN12C): 111%
- growth at 10 µM [16]: 101%
- growth at 10 µM [17]: 101%
- growth at 10 µM [18]: 91.5%
- growth at 10 µM [19]: 97.9%
- growth at 10 µM [20]: 93.7%
- growth at 10 µM (HT-29): 95.7%
- growth at 10 µM [21]: 95%
- growth at 10 µM (SK-MEL-28): 95.3%
- growth at 10 µM (KM12): 101%
- growth at 10 µM (MDA-MB-468): 88.5%
- growth at 10 µM (U-251): 96.2%
- growth at 10 µM [22]: 111%
- growth at 10 µM (NCI-H522): 82.8%
- growth at 10 µM (T47D): 96.4%
